Like-named read-outs stand apart in the source and are kept apart here.
Key:
HIV-IIIb = experiment: Test A: Antiviral Assay in MT4 Cells; format: cell-based, HIV-1; conditions: MT-4 cells infected with HIV-IIIb, 5 days, calculated from the dose response curve, values above 100 normalized to 100%; for inhibition at 0.2 µM / inhibition at 2 µM: Human immunodeficiency virus 1, IIIB, MT4, 120 h; for inhibition at 0.2 µM: read-out: % inhibition at 0.2 μM (percent inhibition of virus-induced cell killing), 0.2 μM drug concentration; for inhibition at 2 µM: read-out: % inhibition at 2 μM (percent inhibition of virus-induced cell killing), 2 μM drug concentration; for % inhibition at 0.2 μM (percent inhibition of virus-induced cell killing): 0.2 μM drug concentration; for % inhibition at 2 μM (percent inhibition of virus-induced cell killing): 2 μM drug concentration
Method: Test A: Antiviral Assay in MT4 Cells
(§1) MT-4 cells were next mixed with HIV-IIIb at an m.o.i of 0.003 for 1 hour, after which time 35 μL of virus/cell mixture (2000 cells) was immediately added to each well containing 40 μL of diluted compound. The plates were then incubated at 37° C. for 5 days. […] Cell lysis was carried out by incubating at room temperature for 10 min and then chemiluminescence was read.
The data above represent an average over time of each assay for each compound. […] Thus, the data reported in the tables include the data reported in the priority document, as well as data from assays run in the intervening period.

[1] = Test B: Cytotoxicity Assay; format: cell-based; conditions: human; uninfected MT-4 cells, same protocol as Test A, 5 days
Method: as §1
(§2) Test B: Cytotoxicity Assay
(§3) Compound cytotoxicity and the corresponding CC50 values was determined using the same protocol as described in the antiviral assay (Test A) except that uninfected cells were used.

uninfected MT-4 cells = experiment: Test B: Cytotoxicity Assay; format: cell-based
Method: as §1, §2, §3

SMILES: CC(C)(O)C#Cc1ccc(-c2cccc3c(N)n[nH]c23)c([C@H](Cc2cc(F)cc(F)c2)NC(=O)Cn2nc(C(F)(F)F)c3c2C(F)(F)[C@@H]2C[C@H]32)n1 [Compound 29B, N—((S)-1-(3-(3-amino-1H-indazol-7-yl)-6-(3-hydroxy-3-methylbut-1-yn-1-yl)pyridin-2-yl)-2-(3,5-difluorophenyl)ethyl)-2-((3bS,4aR)-5,5-difluoro-3-(trifluoromethyl)-3b,4,4a,5-tetrahydro-1H-cyclopropa[3,4]cyclopenta[1,2-c]pyrazol-1-yl)acetamide]
- inhibition at 0.2 µM (HIV-IIIb): 80%
- inhibition at 2 µM (HIV-IIIb): 81%
- CC50 at 5 days [1]: 15.3 µM

SMILES: Cn1nc(NS(C)(=O)=O)c2c(Cl)ccc(-c3ccc(-c4ccccn4)nc3[C@H](Cc3cc(F)cc(F)c3)NC(=O)Cn3nc(C(F)(F)F)c4c3C(F)(F)[C@@H]3C[C@H]43)c21 [Compound 172, N—((S)-1-(5-(4-chloro-1-methyl-3-(methylsulfonamido)-1H-indazol-7-yl)-[2,2′-bipyridin]-6-yl)-2-(3,5-difluorophenyl)ethyl)-2-((3bS,4aR)-5,5-difluoro-3-(trifluoromethyl)-3b,4,4a,5-tetrahydro-1H-cyclopropa[3,4]cyclopenta[1,2-c]pyrazol-1-yl)acetamide]
- CC50 at 5 days [1]: 0.061 µM

SMILES: Cc1ccc(-c2ccc(C#CC(C)(C)O)nc2[C@H](Cc2cc(F)cc(F)c2)NC(=O)Cn2nc(C(F)F)c3c2C(F)(F)[C@@H]2C[C@H]32)c2c1c(NS(N)(=O)=O)nn2C [Compound 71, 2-((3bS,4aR)-3-(difluoromethyl)-5,5-difluoro-3b,4,4a,5-tetrahydro-1H-cyclopropa[3,4]cyclopenta[1,2-c]pyrazol-1-yl)-N—((S)-2-(3,5-difluorophenyl)-1-(3-(1,4-dimethyl-3-(sulfamoylamino)-1H-indazol-7-yl)-6-(3-hydroxy-3-methylbut-1-yn-1-yl)pyridin-2-yl)ethyl)acetamide]
- inhibition at 0.2 µM (HIV-IIIb): 87%
- inhibition at 2 µM (HIV-IIIb): 87%
- CC50 at 5 days [1]: 9.51 µM

SMILES: CCC(O)C#Cc1ccc(-c2ccc(Cl)c3c(NS(C)(=O)=O)nn(C)c23)c([C@H](Cc2cc(F)cc(F)c2)NC(=O)Cn2nc(C(F)(F)F)c3c2C(F)(F)[C@@H]2C[C@H]32)n1 (stereo partly drawn) [Compound 145, N-((1S)-1-(3-(4-chloro-1-methyl-3-(methylsulfonamido)-1H-indazol-7-yl)-6-(3-hydroxypent-1-yn-1-yl)pyridin-2-yl)-2-(3,5-difluorophenyl)ethyl)-2-((3bS,4aR)-5,5-difluoro-3-(trifluoromethyl)-3b,4,4a,5-tetrahydro-1H-cyclopropa[3,4]cyclopenta[1,2-c]pyrazol-1-yl)acetamide]
- inhibition at 0.2 µM (HIV-IIIb): 99%
- inhibition at 2 µM (HIV-IIIb): 99%
- CC50 at 5 days [1]: 8.69 µM

SMILES: COc1cc(-c2ccc(Cl)c3c(NS(C)(=O)=O)nn(C)c23)c([C@H](Cc2cc(F)cc(F)c2)NC(=O)Cn2nc(C(F)(F)F)c3c2C(F)(F)[C@@H]2C[C@H]32)nc1C#CC(C)(C)O [Compound 135B, N—((S)-1-(3-(4-chloro-1-methyl-3-(methylsulfonamido)-1H-indazol-7-yl)-6-(3-hydroxy-3-methylbut-1-yn-1-yl)-5-methoxypyridin-2-yl)-2-(3,5-difluorophenyl)ethyl)-2-((3bS,4aR)-5,5-difluoro-3-(trifluoromethyl)-3b,4,4a,5-tetrahydro-1H-cyclopropa[3,4]cyclopenta[1,2-c]pyrazol-1-yl)acetamide]
- inhibition at 0.2 µM (HIV-IIIb): 93%
- inhibition at 2 µM (HIV-IIIb): 93%
- CC50 at 5 days [1]: 14.2 µM

SMILES: Cn1cc(-c2ccc(-c3ccc(Cl)c4c(NS(C)(=O)=O)nn(C)c34)c([C@H](Cc3cc(F)cc(F)c3)NC(=O)Cn3nc(C(F)(F)F)c4c3C(F)(F)[C@@H]3C[C@H]43)n2)cn1 [Compound 173, N—((S)-1-(3-(4-chloro-1-methyl-3-(methylsulfonamido)-1H-indazol-7-yl)-6-(1-methyl-1H-pyrazol-4-yl)pyridin-2-yl)-2-(3,5-difluorophenyl)ethyl)-2-((3bS,4aR)-5,5-difluoro-3-(trifluoromethyl)-3b,4,4a,5-tetrahydro-1H-cyclopropa[3,4]cyclopenta[1,2-c]pyrazol-1-yl)acetamide]
- inhibition at 0.2 µM (HIV-IIIb): 92%
- inhibition at 2 µM (HIV-IIIb): 92%
- CC50 at 5 days [1]: > 43.7 µM

SMILES: CC(C)(C)C#Cc1ccc(-c2cccn3c(NS(C)(=O)=O)nnc23)c([C@H](Cc2cc(F)cc(F)c2)NC(=O)Cn2nc(C(F)F)c3c2C(F)(F)[C@@H]2C[C@H]32)n1 [Compound 134, 2-((3bS,4aR)-3-(difluoromethyl)-5,5-difluoro-3b,4,4a,5-tetrahydro-1H-cyclopropa[3,4]cyclopenta[1,2-c]pyrazol-1-yl)-N—((S)-2-(3,5-difluorophenyl)-1-(6-(3,3-dimethylbut-1-yn-1-yl)-3-(3-(methylsulfonamido)-[1,2,4]triazolo[4,3-a]pyridin-8-yl)pyridin-2-yl)ethyl)acetamide]
- inhibition at 0.2 µM (HIV-IIIb): 82%
- inhibition at 2 µM (HIV-IIIb): 83%
- CC50 at 5 days [1]: 28 µM

SMILES: Cn1nc(NS(C)(=O)=O)c2c(Cl)ccc(-c3ccc(C#CC(C)(C)N)nc3[C@H](Cc3cc(F)cc(F)c3)NC(=O)Cn3nc(C(F)F)c4c3C(F)(F)[C@@H]3C[C@H]43)c21 [Compound 128B, N—((S)-1-(6-(3-amino-3-methylbut-1-yn-1-yl)-3-(4-chloro-1-methyl-3-(methylsulfonamido)-1H-indazol-7-yl)pyridin-2-yl)-2-(3,5-difluorophenyl)ethyl)-2-((3bS,4aR)-3-(difluoromethyl)-5,5-difluoro-3b,4,4a,5-tetrahydro-1H-cyclopropa[3,4]cyclopenta[1,2-c]pyrazol-1-yl)acetamide]
- % inhibition at 0.2 μM (percent inhibition of virus-induced cell killing) (HIV-IIIb): 93%
- % inhibition at 2 μM (percent inhibition of virus-induced cell killing) (HIV-IIIb): 94%
- CC50 (uninfected MT-4 cells; uninfected MT-4 cells, same protocol as Test A, 5 days, read-out: CC50): 4.18 µM

SMILES: Cn1nc(NS(C)(=O)=O)c2c(Cl)ccc(-c3ccc(C#CC(C)(C)O)nc3[C@H](Cc3cc(F)cc(F)c3)NC(=O)Cn3nc(C4(O)CC4)c4c3CCCC4)c21 [Compound 156E, (S)—N-(1-(3-(4-chloro-1-methyl-3-(methylsulfonamido)-1H-indazol-7-yl)-6-(3-hydroxy-3-methylbut-1-yn-1-yl)pyridin-2-yl)-2-(3,5-difluorophenyl)ethyl)-2-(3-(1-hydroxvcyclopropyl)-4,5,6,7-tetrahydro-1H-indazol-1-yl)acetamide]
- % inhibition at 0.2 μM (percent inhibition of virus-induced cell killing) (HIV-IIIb): 78%
- % inhibition at 2 μM (percent inhibition of virus-induced cell killing) (HIV-IIIb): 78%
- CC50 (uninfected MT-4 cells): 25.6 µM

SMILES: Cn1nc(NS(C)(=O)=O)c2cccc(-c3ccc(C#C[C@@H](N)CO)nc3[C@H](Cc3cc(F)cc(F)c3)NC(=O)Cn3nc(C(F)(F)F)c4c3C(F)(F)[C@@H]3C[C@H]43)c21 [Compound 59B, N—((S)-1-(6-((R)-3-amino-4-hydroxybut-1-yn-1-yl)-3-(1-methyl-3-(methylsulfonamido)-1H-indazol-7-yl)pyridin-2-yl)-2-(3,5-difluorophenyl)ethyl)-2-((3bS,4aR)-5,5-difluoro-3-(trifluoromethyl)-3b,4,4a,5-tetrahydro-1H-cyclopropa[3,4]cyclopenta[1,2-c]pyrazol-1-yl)acetamide]
- inhibition at 0.2 µM (HIV-IIIb): 94%
- inhibition at 2 µM (HIV-IIIb): 94%
- CC50 at 5 days [1]: 22.4 µM
